From US20170360882A1, “COMPOSITION FOR PREVENTING, IMPROVING OR TREATING PSORIASIS COMPRISING IMMUNOMODULATOR AND GLUCOSAMINE” (DONGGUK UNIVERSITY INDUSTRY-ACADEMY COOPERATION FOUNDATION, priority 2014, published 2017)

Experiments:
Format in all cases: in vivo, C57BL/6 mice
CD4+ CD25+ Treg cells = assay: Flow cytometry of regulatory T (Treg) cells from spleens of IMQ-induced psoriasis-like mice; conditions: spleen cells; glucosamine 300 mg/kg, cyclosporine A 20 mg/kg; co-administration vs each alone; alone vs control group (IMQ alone)
Protocol: Single-cell suspensions prepared from spleens were stained with FITC-anti-CD4 (GK1.5) and PE-anti-CD25 (280406) (R&D Systems, Minneapolis, Minn., USA), and incubated in a PBS solution containing 2% FBS at 4° C. for 30 minutes under dark conditions. After incubation, the samples were washed twice and analyzed using CellQuest software (Becton Dickinson).

IL-22 = assay: Cytokine production assay (ELISA), IL-22 in blood serum and skin of IMQ-induced psoriasis-like mice; conditions: blood serum samples and skin samples; glucosamine 300 mg/kg, cyclosporine A 10 and 20 mg/kg; co-administration vs each alone; alone vs control group (IMQ alone)
Protocol: (§1) To measure cytokine levels in blood serum, mouse blood serum was collected 24 hours after the final administration and stored at −70° C. until analysis. To measure cytokine levels in the skin tissues, the back skin of mice was removed and stored at −80° C. Thereafter, the skin tissues were homogenized using a Bullet Blender™ Blue (Next Advance, Averill Park, N.Y.) at 4° C. to obtain supernatants, and the supernatants were stored at −30° C. IL-17A, IL-22, IL-23, and TNF-α concentrations in the blood serum and the skin tissues of mice were measured using the Mouse IL-17A Quantikine ELISA Kit (R&D Systems, Minneapolis, Minn., USA), IL-22, IL-23 and TNF-α ELISA kits (eBioscience, San Diego, Calif., USA). Meanwhile, ELISA was performed according to the manufacturer's instructions.

IL-23 = assay: Cytokine production assay (ELISA), IL-23 in blood serum and skin of IMQ-induced psoriasis-like mice; conditions: blood serum samples and skin samples; glucosamine 300 mg/kg, cyclosporine A 10 and 20 mg/kg; co-administration vs each alone; alone vs control group (IMQ alone)
Protocol: as §1

[1] = system: IMQ-induced psoriasis-like mouse model; assay: Skin lesion score (erythema+scaling+thickening) in IMQ-induced psoriasis-like mouse model; conditions: for severity of psoriasis-like skin lesions (cumulative score erythema+scaling+thickening): oral, 7 days
Protocol: More specifically, hair on the backs of C57BL/6 mice was shaved off using an electric razor and then treated with a depilatory (Niclean, Ildong, Korea). For all other groups except a normal group, 62.5 mg of IMQ cream was applied daily to the shaved back area for 14 days.
On the other hand, the normal group as a negative control group was treated only with a vehicle cream (petrolatum).
The degree of (1) erythema, (2) scaling and (3) thickening was scored as 0 (none), 1 (mild), 2 (moderate) and 3 (severe). A cumulative dermatitis score (erythema+scaling+thickening) indicates the severity of psoriasis in back skin (scale: 0-9).
The clinical skin scores were calculated by summing the scores obtained on the basis of symptoms of erythema, scaling and thickening.

TNF-α = assay: Cytokine production assay (ELISA), TNF-α in blood serum and skin of IMQ-induced psoriasis-like mice; conditions: blood serum samples and skin samples; glucosamine 300 mg/kg, cyclosporine A 10 and 20 mg/kg; co-administration vs each alone; alone vs control group (IMQ alone)
Protocol: as §1

IL-17A = assay: Cytokine production assay (ELISA), IL-17A in blood serum and skin of IMQ-induced psoriasis-like mice; conditions: blood serum samples and skin samples; glucosamine 300 mg/kg, cyclosporine A 10 and 20 mg/kg; co-administration vs each alone; alone vs control group (IMQ alone)
Protocol: as §1

In the case of `N[C@@H]1C(O)O[C@H](CO)[C@H](O)[C@@H]1O` (stereo in doubt) [glucosamine], the “number of CD4+ CD25+ Treg cells” value (CD4+ CD25+ Treg cells) is reported as “no significant difference”, the IL-22 level (IL-22) is reported as “no significant difference” and the IL-23 level (IL-23) is reported as “no significant difference”. For the same compound, the clinical skin scores ([1]; glucosamine 300 mg/kg, cyclosporine A 10 and 20 mg/kg, oral once a day for a week, co-administration vs each alone, alone vs control group (IMQ alone)) was “no significant difference”, the “severity of psoriasis-like skin lesions (cumulative score erythema+scaling+thickening)” value ([1]; high doses alone: glucosamine 400 mg/kg, cyclosporine A 40 mg/kg) was “reduced” and the “severity of psoriasis-like skin lesions (cumulative score erythema+scaling+thickening)” value ([1]; low doses alone: glucosamine 100, 200 and 300 mg/kg, cyclosporine A 10 and 20 mg/kg) was “no significant effect”. For the same compound, the “level of TNF-α” value (TNF-α) was “no significant difference” and the IL-17A level (IL-17A) was “no significant difference”.
